Values quoted from earlier work, collected in US20040259844A1 (priority 2000, published 2004).

Tested on: retinal ganglion cells

Compound: CN1[C@@H]2CC[C@H]1C[C@@H](OC(=O)C(CO)c1ccccc1)C2 (stereo partly shown) [atropine]
- effect on veratridine-increased survival of retinal ganglion cells: blocked
